Measurements as given in US6835695B2, “Herbicidal Compositions” (Aventis CropScience GmbH, priority 2000, dated 2004).

Tested on: monocotyledonous and dicotyledonous weed plants
Assay: Post-emergence greenhouse test, herbicidal action scored visually (weeds not split)
Type: in vivo
Settings: with Genapol X 150, X 200, O 200 or Sapogenat T130, T 200, T 300, T 400, T 500 at e.g. 50, 100, 300, 500 g/ha, vs no surfactant or low-EO surfactant (Genapol O 060, Sapogenat T 040)
Method: Seeds or rhizome pieces of monocotyledonous and dicotyledonous weed plants were placed in sandy loamy soil in plastic pots, covered with soil and grown in the greenhouse under favorable growth conditions. Three weeks after sowing, the test plants were treated in the three-leaf stage. The compounds according to the invention which were formulated in the form of wettable powders or emulsion concentrates were sprayed onto the green plant parts at an application rate of 600 to 800 l of water/ha (converted), in various dosages. After the test plants had been left to stand in the greenhouse under optimum growth conditions for 3 to 4 weeks the effect of the preparations was scored visually by comparison with untreated controls.

| SMILES | action of the herbicide when combined with a high-EO surfactant (herbicide 200 g/ha) | action of the herbicide when combined with a high-EO surfactant (herbicide 80 g/ha) |
| --- | --- | --- |
| CS(=O)(=O)c1ccc(C(=O)C2C(=O)CCCC2=O)c([N+](=O)[O-])c1 [Herbicide A1] | increased markedly | – |
| CCS(=O)(=O)c1ccc(C(=O)C2C(=O)CCCC2=O)c(Cl)c1C1=NOC(CC#N)C1 (stereo not shown) [Herbicide A4] | – | increased markedly |
| CCOCC1CC(c2c(S(=O)(=O)CC)ccc(C(=O)C3C(=O)CCCC3=O)c2Cl)=NO1 (stereo not shown) [Herbicide A6] | – | increased markedly |
| CS(=O)(=O)c1ccc(C(=O)C2C(=O)CCCC2=O)c(Cl)c1COCC(F)(F)F [Herbicide A9] | – | increased markedly |
